Reference: PMC12645083, “Microwave‐Enhanced Synthesis of 2‐Styrylquinoline‐4‐Carboxamides With Promising Anti‐Lymphoma Activity” (Archiv Der Pharmazie, 2025)
Read-outs that look alike come from different tables or passages of the source.

Legend:
[1] = system: panel of five lymphoma cell lines (VL51, TOLEDO, SU-DHL-18, SU-DHL-1, KM-H2); assay: Antiproliferative activity, range over the panel of five lymphoma cell lines; assay type: cell-based, human; details: range or statement over the lymphoma cell lines, 72 h; for IC50: Homo sapiens
Text: Based on these interesting results on hematological malignancies‐derived cell lines, styrylquinolines 4i, 4n, 4s and 4ah were further tested for their antiproliferative activity on a panel of five lymphoma cell lines (VL51, splenic B‐cell lymphoma; TOLEDO, diffuse large B‐cell lymphoma, non‐Hodgkin lymphoma; SU‐DHL‐18, lymph node lymphoma; SU‐DHL‐1, histiocytic large cell lymphoma; KM‐H2, Hodgkin lymphoma) (Table 3). In this case, a different behaviour was observed.
(§1) To test the newly synthesized compounds, various human cell lines were employed. HD‐MB03 cells were purchased from DSMZ (Braunschweig, Germany), while A549, MDA‐MB‐231, RPMI‐8420, SU‐DHL‐8, TOLEDO, VL51, SU‐DHL‐1, SU‐DHL‐18, and KM‐H2 were obtained from ATCC (Manassas, VA, USA). Cells were cultured in DMEM (for MDA‐MB‐231 and A549) or RPMI‐1640 (for RPMI‐8420, SU‐DHL‐8, TOLEDO, VL51, SU‐DHL‐1, SU‐DHL‐18, KM‐H2, and HD‐MB03) media (Gibco, Milan, Italy). Both media were supplemented with 115 units/mL penicillin G (Gibco, Milan, Italy), 115 µg/mL streptomycin (Invitrogen, Milan, Italy), and 10% fetal bovine serum (Invitrogen, Milan, Italy). Peripheral blood mononuclear cells (PBMCs) were isolated from healthy donors as previously described. For cytotoxicity assays, PBMCs were resuspended at 5 × 10⁵ cells/mL in complete RPMI medium with or without 2.5 µg/mL phytohemagglutinin (PHA) (Irvine Scientific) to stimulate T‐cell activation and proliferation. All cell lines were maintained at 37°C in a humidified atmosphere containing 5% CO₂. All compounds were dissolved in DMSO at a 10 mM stock concentration. For dose–response assays, cells were seeded in 96‐well plates at densities optimized for each cell line: HD‐MB03 at 10,000 cells/well, A549 at 4000 cells/well, and MDA‐MB‐231 at 7000 cells/well. All other cell lines were seeded at 20,000 cells/well in a final volume of 100 µL per well. After 24 h, cells were treated with a 6‐point serial dilution of compounds starting from 10 µM, in triplicate for statistical analysis. Seventy‐2 h posttreatment, 10 µL of resazurin solution (100 µg/mL) was added to each well, and cells were incubated for an additional 3–6 h. Fluorescence was measured using a Spark 10 M microplate reader (Tecan Group Ltd., Männedorf, Switzerland) with excitation at 535 nm and emission at 600 nm. The IC₅₀ was defined as the concentration of compound required to inhibit cell proliferation by 50% compared to cells treated with the highest DMSO concentration.

[2] = system: peripheral blood mononuclear cells (PBMCs); assay: Antiproliferative/cytotoxicity assay on PBMCs from a healthy donor; assay type: cell-based; details: Homo sapiens, PBMC
Experimental: To assess the potential toxicity of the most promising quinoline derivatives 4i, 4n, 4s, and 4ah, an antiproliferative assay was performed, using peripheral blood mononuclear cells (PBMCs) isolated from a healthy donor.
as §1
To test the newly synthesized compounds, various human cell lines were employed. HD-MB03 cells were purchased from DSMZ (Braunschweig, Germany), while A549, MDA-MB-231, RPMI-8420, SU-DHL-8, TOLEDO, VL51, SU-DHL-1, SU-DHL-18, and KM-H2 were obtained from ATCC (Manassas, VA, USA). Cells were cultured in DMEM (for MDA-MB-231 and A549) or RPMI-1640 (for RPMI-8420, SU-DHL-8, TOLEDO, VL51, SU-DHL-1, SU-DHL-18, KM-H2, and HD-MB03) media (Gibco, Milan, Italy). Both media were supplemented with 115 units/mL penicillin G (Gibco, Milan, Italy), 115 µg/mL streptomycin (Invitrogen, Milan, Italy), and 10% fetal bovine serum (Invitrogen, Milan, Italy). Peripheral blood mononuclear cells (PBMCs) were isolated from healthy donors as previously described. ^[1] For cytotoxicity assays, PBMCs were resuspended at 5 × 10⁵ cells/mL in complete RPMI medium with or without 2.5 µg/mL phytohemagglutinin (PHA) (Irvine Scientific) to stimulate T cell activation and proliferation. All cell lines were maintained at 37 °C in a humidified atmosphere containing 5% CO₂. All compounds were dissolved in DMSO at a 10 mM stock concentration. For dose–response assays, cells were seeded in 96-well plates at densities optimized for each cell line: HD-MB03 at 10,000 cells/well, A549 at 4,000 cells/well, and MDA-MB-231 at 7,000 cells/well. All other cell lines were seeded at 20,000 cells/well in a final volume of 100 µL per well. After 24 hours, cells were treated with a 6-point serial dilution of compounds starting from 10 µM, in triplicate for statistical analysis. Seventy-two hours post-treatment, 10 µL of resazurin solution (100 µg/mL) was added to each well, and cells were incubated for an additional 3–6 hours. […]

[3] = PBMCs stimulated with 2.5 µg/mL PHA, read-out: IC50 phytohemagglutinin-stimulated PBMCs
[4] = resting PBMCs from a healthy donor, read-out: IC50 resting PBMCs

SMILES | IC50 values, range over lymphoma cell lines [1] | IC50 [2, 3] | IC50 [2, 4] | IC50 [1]
COc1cc(/C=C/c2cc(C(=O)Nc3ccc([N+](=O)[O-])cc3)c3ccccc3n2)cc(OC)c1OC [4s, (E)-N-(4-nitrophenyl)-2-(3,4,5-trimethoxystyryl)quinoline-4-carboxamide] | devoid of antiproliferative activity | > 10 µM | > 10 µM | –
COc1cc(/C=C/c2cc(C(=O)Nc3c(C)cccc3C)c3ccccc3n2)cc(OC)c1OC [4n, (E)-N-(2,6-dimethylphenyl)-2-(3,4,5-trimethoxystyryl)quinoline-4-carboxamide] | devoid of antiproliferative activity | > 10 µM | > 10 µM | –
O=C(Nc1ccc(Cl)cc1)c1cc(/C=C/c2ccccc2[N+](=O)[O-])nc2ccccc12 [4ah, (E)-N-(4-chlorophenyl)-2-(2-nitrostyryl)quinoline-4-carboxamide] | – | > 10 µM | > 10 µM | 3.79 to 6.74 µM
O=C(Nc1ccc([N+](=O)[O-])cc1)c1cc(/C=C/c2ccccc2)nc2ccccc12 [4i, (E)-N-(4-nitrophenyl)-2-styrylquinoline-4-carboxamide] | – | > 10 µM | > 10 µM | 1.03 to 7.6 µM
